Experimental data as given in paper PMC6131557, “Selective Cytotoxicity of Dihydroorotate Dehydrogenase Inhibitors to Human Cancer Cells Under Hypoxia and Nutrient-Deprived Conditions” (Frontiers in Pharmacology, 2018).
Like-named read-outs stand apart in the source and are kept apart here.

Columns and labels:
[1] = target: T1, human dihydroorotate dehydrogenase (HsDHODH) (Homo sapiens, UniProt Q02127); assay: Inhibition of recombinant human DHODH enzyme activity; type: biochemical; details: recombinant human DHODH; purified enzyme fixed at 10 nM; read-out: IC50 (nM), inhibition of human DHODH
T1 construct: made in house
T1 sequence (Q02127 whole entry): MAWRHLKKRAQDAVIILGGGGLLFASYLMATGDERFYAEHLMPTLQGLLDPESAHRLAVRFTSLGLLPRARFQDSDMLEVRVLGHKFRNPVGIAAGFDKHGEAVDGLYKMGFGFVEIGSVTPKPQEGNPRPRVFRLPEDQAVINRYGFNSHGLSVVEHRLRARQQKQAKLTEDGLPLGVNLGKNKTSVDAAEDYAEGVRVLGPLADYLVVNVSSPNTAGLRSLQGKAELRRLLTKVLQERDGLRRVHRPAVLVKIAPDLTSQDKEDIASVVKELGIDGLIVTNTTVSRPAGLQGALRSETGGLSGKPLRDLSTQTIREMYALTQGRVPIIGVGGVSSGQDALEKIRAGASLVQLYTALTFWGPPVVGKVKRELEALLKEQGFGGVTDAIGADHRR

[2] = system: HDF cells; assay: Cytotoxicity assay (Cell Counting Kit-8 / WST-8) on HDF cells; type: cell-based; details: Homo sapiens
Experimental: For hypoxia and nutrient-deprived culture conditions, cells were incubated under 1% oxygen in glucose and glutamine-free DMEM (Gibco) without FBS.
DLD-1 or HDF cells were seeded at 2.5 × 10^4 cells/well on a 96-well plate with normal medium, and cultured overnight under normal culture condition. The cells were washed with PBS and the medium was replaced to either normal medium or glucose and glutamine-free DMEM without FBS. Test compounds or DMSO as a control were added to the wells. The cells in normal medium were cultured under normal culture conditions, while cells in nutrient-deprived medium were cultured under hypoxia condition. After 24 or 48 h incubation, the cells were washed with PBS, 100 μl of fresh normal medium, and 10 μl of Cell Counting Kit-8 solution (Donjindo, Japan) was added to each well. After 3 h incubation under normal culture condition, the absorbance was measured at 450 nm using SpectraMax M2e-TUY microplate reader (Molecular Devices). Cell viability of test wells was calculated based on absorbance of control wells containing DMSO according to manufacturer’s protocol.

[3] = target: Complexes I–III; assay: NADH-cytochrome c reductase (complexes I–III) activity, bovine mitochondria; type: biochemical
How it was run: (§1)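 Bovine mitochondrial fractions served as enzyme source. NADH-cytochrome c reductase (complexes I–III) and succinate-cytochrome c reductase (complexes II–III) activities were measured by established published methods.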

[4] = target: Complex II–III; assay: Succinate-cytochrome c reductase (complexes II–III) activity, bovine mitochondria; type: biochemical
How it was run: as §1

[5] = system: Complex I; assay: NADH dehydrogenase (complex I) activity, bovine mitochondria; type: biochemical; details: at 5 μM
How it was run: as §1

[6] = target: T2, Complex II (Bos taurus, UniProt P35720+Q3T189+Q95123); assay: Succinate:quinone reductase (complex II) activity, bovine mitochondria; type: biochemical
T2 construct: from tissue; host or cells: bovine mitochondrial fraction / sub-mitochondrial particles
T2 sequence (P31039 45-665 partner limits assumed): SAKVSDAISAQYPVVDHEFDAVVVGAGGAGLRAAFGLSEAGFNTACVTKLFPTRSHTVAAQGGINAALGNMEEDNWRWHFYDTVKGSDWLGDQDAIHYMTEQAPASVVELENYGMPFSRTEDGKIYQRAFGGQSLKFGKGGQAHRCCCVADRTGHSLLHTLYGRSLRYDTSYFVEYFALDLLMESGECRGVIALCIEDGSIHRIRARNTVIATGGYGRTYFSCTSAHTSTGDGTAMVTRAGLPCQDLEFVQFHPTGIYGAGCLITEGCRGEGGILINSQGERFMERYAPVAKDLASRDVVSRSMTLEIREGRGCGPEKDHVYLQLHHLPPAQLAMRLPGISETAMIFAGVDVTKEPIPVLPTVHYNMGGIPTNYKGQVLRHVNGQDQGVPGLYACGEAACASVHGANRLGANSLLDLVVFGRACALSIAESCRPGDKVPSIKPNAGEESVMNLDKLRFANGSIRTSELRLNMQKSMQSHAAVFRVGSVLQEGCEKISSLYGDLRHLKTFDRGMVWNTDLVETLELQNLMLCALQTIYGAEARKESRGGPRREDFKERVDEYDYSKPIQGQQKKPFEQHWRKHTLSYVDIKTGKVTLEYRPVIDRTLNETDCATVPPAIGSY
T2 sequence (Q3T189 29-280): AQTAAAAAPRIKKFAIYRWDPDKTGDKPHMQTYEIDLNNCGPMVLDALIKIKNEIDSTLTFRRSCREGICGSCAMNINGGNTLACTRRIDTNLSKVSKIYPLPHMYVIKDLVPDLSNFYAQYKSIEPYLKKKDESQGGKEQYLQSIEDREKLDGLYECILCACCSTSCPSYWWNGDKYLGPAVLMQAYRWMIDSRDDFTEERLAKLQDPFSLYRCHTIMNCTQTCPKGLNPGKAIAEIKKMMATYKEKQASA
T2 sequence (P35720 30-169): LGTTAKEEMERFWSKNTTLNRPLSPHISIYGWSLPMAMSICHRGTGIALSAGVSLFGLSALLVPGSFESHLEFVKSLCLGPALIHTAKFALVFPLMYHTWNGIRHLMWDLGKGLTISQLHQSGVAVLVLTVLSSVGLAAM
T2 sequence (Q95123 56-158): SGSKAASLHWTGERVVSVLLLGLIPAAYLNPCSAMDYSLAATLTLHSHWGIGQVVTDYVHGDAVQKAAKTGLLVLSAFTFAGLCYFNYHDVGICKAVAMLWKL

[7] = target: T3, Complex III (Bos taurus, UniProt P00157); assay: Quinol oxidase (complex III) activity, bovine mitochondria; type: biochemical; details: ubiquinol oxidase activity
T3 construct: from tissue; host or cells: bovine mitochondrial fraction / sub-mitochondrial particles

[8] = system: BSY-1; assay: 39-cancer cell panel assay: BSY-1; type: cell-based; details: Homo sapiens, Br
[9] = system: HBC-5; assay: 39-cancer cell panel assay: HBC-5; type: cell-based; details: Homo sapiens, HBC5, Br
[10] = system: MCF-7; assay: 39-cancer cell panel assay: MCF-7; type: cell-based; details: Homo sapiens, MCF7, Br
[11] = system: MDA-MB-231; assay: 39-cancer cell panel assay: MDA-MB-231; type: cell-based; details: Homo sapiens, Br
[12] = system: SF-268; assay: 39-cancer cell panel assay: SF-268; type: cell-based; details: Homo sapiens, CNS
[13] = system: SF-295; assay: 39-cancer cell panel assay: SF-295; type: cell-based; details: Homo sapiens, CNS
[14] = system: SF-539; assay: 39-cancer cell panel assay: SF-539; type: cell-based; details: Homo sapiens, CNS
[15] = system: SNB-75; assay: 39-cancer cell panel assay: SNB-75; type: cell-based; details: Homo sapiens, CNS
[16] = system: SNB-78; assay: 39-cancer cell panel assay: SNB-78; type: cell-based; details: Homo sapiens, CNS
[17] = system: HCC2998; assay: 39-cancer cell panel assay: HCC2998; type: cell-based; details: Homo sapiens, HCC 2998, Co
[18] = system: HT-29; assay: 39-cancer cell panel assay: HT-29; type: cell-based; details: Homo sapiens, Co
[19] = system: HCT-15; assay: 39-cancer cell panel assay: HCT-15; type: cell-based; details: Homo sapiens, Co
[20] = system: HCT-116; assay: 39-cancer cell panel assay: HCT-116; type: cell-based; details: Homo sapiens, Co
[21] = system: NCI-H23; assay: 39-cancer cell panel assay: NCI-H23; type: cell-based; details: Homo sapiens, Lu
[22] = system: NCI-H522; assay: 39-cancer cell panel assay: NCI-H522; type: cell-based; details: Homo sapiens, Lu
[23] = system: NCI-H460; assay: 39-cancer cell panel assay: NCI-H460; type: cell-based; details: Homo sapiens, Lu
[24] = system: A549; assay: 39-cancer cell panel assay: A549; type: cell-based; details: Homo sapiens, Lu
[25] = system: DMS273; assay: 39-cancer cell panel assay: DMS273; type: cell-based; details: Homo sapiens, DMS-273, Lu
[26] = system: LOX-IMVI; assay: 39-cancer cell panel assay: LOX-IMVI; type: cell-based; details: Homo sapiens, Me
[27] = system: OVCAR-3; assay: 39-cancer cell panel assay: OVCAR-3; type: cell-based; details: Homo sapiens, Ov
[28] = system: OVCAR-4; assay: 39-cancer cell panel assay: OVCAR-4; type: cell-based; details: Homo sapiens, Ov
[29] = system: OVCAR-5; assay: 39-cancer cell panel assay: OVCAR-5; type: cell-based; details: Homo sapiens, Ov
[30] = system: RXF-631L; assay: 39-cancer cell panel assay: RXF-631L; type: cell-based; details: Homo sapiens, Re
[31] = system: ACHN; assay: 39-cancer cell panel assay: ACHN; type: cell-based; details: Homo sapiens, Re
[32] = system: St-4; assay: 39-cancer cell panel assay: St-4; type: cell-based; details: Homo sapiens
[33] = system: MKN1; assay: 39-cancer cell panel assay: MKN1; type: cell-based; details: Homo sapiens, MKN-1, St
[34] = system: MKN7; assay: 39-cancer cell panel assay: MKN7; type: cell-based; details: Homo sapiens, MKN-7, St
[35] = system: MKN28; assay: 39-cancer cell panel assay: MKN28; type: cell-based; details: Homo sapiens, MKN-28, St
[36] = system: MKN45; assay: 39-cancer cell panel assay: MKN45; type: cell-based; details: Homo sapiens, MKN-45, St
[37] = system: MKN74; assay: 39-cancer cell panel assay: MKN74; type: cell-based; details: Homo sapiens, MKN-74, St
[38] = system: DU-145; assay: 39-cancer cell panel assay: DU-145; type: cell-based; details: Homo sapiens, Pro
[39] = system: PC-3; assay: 39-cancer cell panel assay: PC-3; type: cell-based; details: Homo sapiens, Pro
[40] = read-out: IC50 (μM) HDF (24 h) Hypoxia nutrient (-), hypoxia (1% oxygen), nutrient (-)
[41] = read-out: IC50 (μM) HDF (24 h) Normoxia nutrient (+), normoxia, nutrient (+)

| SMILES | IC50 [1] [nM] | IC50 [2, 40] [µM] | IC50 [2, 41] [µM] | IC50 [3] [µM] | IC50 [4] [µM] | Inhibition (%) Complex I [5] [%] | inhibition at 5 µM [6] [%] | inhibition at 5 µM [7] [%] | GI50 [8] [µM] | GI50 [9] [µM] | GI50 [10] [µM] | GI50 [11] [µM] | GI50 [12] [µM] | GI50 [13] [µM] | GI50 [14] [µM] | GI50 [15] [µM] | GI50 [16] [µM] | GI50 [17] [µM] | GI50 [18] [µM] | GI50 [19] [µM] | other results |
| --- | --- | --- | --- | --- | --- | --- | --- | --- | --- | --- | --- | --- | --- | --- | --- | --- | --- | --- | --- | --- | --- |
| C/C(=C\Cc1c(O)c(Cl)c(C)c(C=O)c1O)CC/C=C(\C)[C@@H]1CC(=O)C(C)(C)O1 [Compound 1, ascofuranone] | 37.5 ± 12 | 1.5 ± 0.18 | > 100 | 1.5 ± 0.04 | 13 ± 1.7 | 11 ± 5.8 | 1.5 ± 7.6 | 36 ± 1.2 | 16 | 28 | 9 | 7.4 | 7 | 5.3 | 1.7 | 23 | 23 | 17 | 6.6 | 1.3 | GI50 [20]: 5.1 µM; GI50 [21]: 15 µM; GI50 [22]: 8.4 µM; GI50 [23]: 2 µM; GI50 [24]: 7.6 µM; GI50 [25]: 5.9 µM; GI50 [26]: 2.8 µM; GI50 [27]: 8 µM; GI50 [28]: 5.9 µM; GI50 [29]: 7.6 µM; GI50 [30]: 12 µM; GI50 [31]: 10 µM; GI50 [32]: 14 µM; GI50 [33]: 14 µM; GI50 [34]: 15 µM; GI50 [35]: 9.7 µM; GI50 [36]: 10 µM; GI50 [37]: 13 µM; GI50 [38]: 11 µM; GI50 [39]: 13 µM |
| CC(C)=CCC/C(C)=C/CC/C(C)=C/Cc1c(O)c(Cl)c(C)c(C=O)c1O [Compound 8] | ~5 | 0.16 ± 0.023 | 61 ± 5.3 | 0.048 ± 0.001 | 0.12 ± 0.013 | 43 ± 1.8 | 8.2 ± 4.9 | > 80 | 13 | 16 | 1.3 | 2.8 | 0.93 | 1.3 | 0.24 | 0.7 | 16 | 12 | 1.1 | 0.043 | GI50 [20]: 0.46 µM; GI50 [21]: 2.8 µM; GI50 [22]: 1.2 µM; GI50 [23]: 0.21 µM; GI50 [24]: 0.77 µM; GI50 [25]: 0.45 µM; GI50 [26]: 0.61 µM; GI50 [27]: 1.9 µM; GI50 [28]: 13 µM; GI50 [29]: 6.6 µM; GI50 [30]: 11 µM; GI50 [31]: 0.79 µM; GI50 [32]: 1.1 µM; GI50 [33]: 8.2 µM; GI50 [34]: 2.1 µM; GI50 [35]: 1.3 µM; GI50 [36]: 6.4 µM; GI50 [37]: 1.9 µM; GI50 [38]: 0.26 µM; GI50 [39]: 1.2 µM |
